Reference: article PMC10454409, “Hybrids of Sterically Hindered Phenols and Diaryl Ureas: Synthesis, Switch from Antioxidant Activity to ROS Generation and Induction of Apoptosis” (International Journal of Molecular Sciences, 2023)
Read-outs that look alike come from different tables or passages of the source.

Legend:
Assay type in all cases: cell-based
[1] = tested on: SH-SY5Y cells (neuroblastoma); assay: MTT cytotoxicity test, SH-SY5Y; settings: Homo sapiens, SH-SY5Y; MTT test; 24 h incubation per text, 48 h per method
From the text: (§1) For the experiments, we used tumor cell cultures M-HeLa clone 11 (epithelioid carcinoma of the cervix, subline HeLa., clone M-HeLa), HuTu 80 (human duodenal adenocarcinoma) and MCF7 (human breast adenocarcinoma (pleural fluid)) from the collection of the Institute of Cytology, Russian Academy of Sciences (St. Petersburg); human liver cells (Chang liver) from the collection of the Research Institute of Virology at the Russian Academy of Medical Sciences (Moscow); and SH-SY5Y (neuroblastoma)from the Laboratory of Tumor Cell Genetics at the Scientific Research Institute of Carcinogenesis N.N. Blokhin National Medical Research Center of Oncology.
(§2) The cytotoxic effect on cells was determined using the colorimetric method of cell proliferation—the MTT test. NADP-H-dependent cellular oxidoreductase enzymes can, under certain conditions, reflect the number of viable cells. These enzymes are able to reduce the tetrazolium dye (MTT)-3-(4,5-dimethylthiazol-2-yl)-2,5-diphenyl-tetrazolium bromide to insoluble blue-violet formazan, which crystallizes inside the cell. The amount of formazan formed is proportional to the number of cells with active metabolism.
(§3) Cells were seeded on a 96-well Nunc plate at a concentration of 5 × 10^3 cells per well in a volume of 100 μL of medium and cultured in a CO2 incubator at 37 °C until a monolayer was formed. […] After 48 h, the nutrient medium was removed from the plates and 100 µL of the nutrient medium without serum with MTT at a concentration of 0.5 mg/mL was added and incubated for 4 h at 37 °C. Formazan crystals were […] 100 µL of DMSO in each well. Optical density was recorded at 540 nm on an in vitro logic microplate reader (Russia). The experiments for all compounds were repeated in triplicate.
(§4) IC50 values were estimated using the Quest Graph IC50 Calculator (AAT Bioquest, Inc., Sunnyvale, CA, USA) (Version 2022) (accessed on 25 June 2022).

[2] = tested on: M-HeLa cells (human cervix epithelioid carcinoma); assay: MTT cytotoxicity test, M-HeLa; settings: Homo sapiens, M-HeLa; MTT test; 24 h incubation per text, 48 h per method
From the text: as §1, §2, §3, §4

[3] = tested on: HuTu 80 cells (human duodenal adenocarcinoma); assay: MTT cytotoxicity test, HuTu 80; settings: Homo sapiens
From the text: as §1, §2, §3, §4

[4] = tested on: MCF-7 cells (human breast adenocarcinoma); assay: MTT cytotoxicity test, MCF-7; settings: Homo sapiens, MCF7, MTT test; 24 h incubation per text, 48 h per method
Description: as §2
Formazan crystals were added to 100 µL of DMSO in each well. Optical density was recorded at 540 nm on an in vitro logic microplate reader (Russia). The experiments for all compounds were repeated in triplicate.

[5] = HuTu80, MTT test, 24 h incubation per text, 48 h per method, read-out: IC50, HuTu 80
[6] = HuTu80, read-out: IC50, HuTu 80

Measured: IC50

COc1ccc(NC(=O)Nc2ccc(C(c3cc(C(C)(C)C)c(O)c(C(C)(C)C)c3)P(=O)(OC(C)C)OC(C)C)c(NC(=O)Nc3ccc(OC)cc3)n2)cc1 (stereo not drawn) [10c]
> 70 µM: [1] | [2] | [3]; [5] | [4]

COP(=O)(OC)C(c1cc(C(C)(C)C)c(O)c(C(C)(C)C)c1)c1ccc(NC(=O)Nc2ccc(C)cc2)cc1NC(=O)Nc1ccc(C)cc1 (stereo not drawn) [14a]
> 70 µM: [1] | [2] | [3]; [6] | [4]

COc1ccc(NC(=O)Nc2ccc(C(c3cc(C(C)(C)C)c(O)c(C(C)(C)C)c3)P(=O)(OC)OC)c(NC(=O)Nc3ccc(OC)cc3)c2)cc1 (stereo not drawn) [15a]
> 70 µM: [1] | [2] | [3]; [6] | [4]

CCOP(=O)(OCC)C(c1cc(C(C)(C)C)c(O)c(C(C)(C)C)c1)c1ccc(NC(=O)Nc2ccc(C)cc2)nc1NC(=O)Nc1ccc(C)cc1 (stereo not drawn) [9b]
> 70 µM: [1] | [2] | [3]; [6] | [4]

CCOP(=O)(OCC)C(c1cc(C(C)(C)C)c(O)c(C(C)(C)C)c1)c1ccc(NC(=O)Nc2ccccc2)cc1NC(=O)Nc1ccccc1 (stereo not drawn) [6b]
> 70 µM: [1] | [2] | [3]; [6] | [4]

Cc1ccc(NC(=O)Nc2ccc(C(c3cc(C(C)(C)C)c(O)c(C(C)(C)C)c3)P(=O)(Oc3ccccc3)Oc3ccccc3)c(NC(=O)Nc3ccc(C)cc3)c2)cc1 (stereo not drawn) [14d]
> 70 µM: [1] | [2] | [3]; [6] | [4]

Cc1ccc(NC(=O)Nc2ccc(C(c3cc(C(C)(C)C)c(O)c(C(C)(C)C)c3)P(=O)(OC(C)C)OC(C)C)c(NC(=O)Nc3ccc(C)cc3)n2)cc1 (stereo not drawn) [9c]
> 70 µM: [1] | [2] | [3]; [5] | [4]

COc1ccc(NC(=O)Nc2ccc(C(c3cc(C(C)(C)C)c(O)c(C(C)(C)C)c3)P(=O)(OC)OC)c(NC(=O)Nc3ccc(OC)cc3)n2)cc1 (stereo not drawn) [10a]
> 70 µM: [1] | [2] | [3]; [6] | [4]

CC(C)(C)c1cc(C(c2ccc(NC(=S)Nc3ccccc3)nc2N)P(=O)(Oc2ccccc2)Oc2ccccc2)cc(C(C)(C)C)c1O (stereo not drawn) [18d]
> 70 µM: [1] | [2] | [3]; [6] | [4]

CC(C)(C)c1cc(C(c2ccc(NC(=O)Nc3ccc(Cl)cc3)nc2NC(=O)Nc2ccc(Cl)cc2)P(=O)(Oc2ccccc2)Oc2ccccc2)cc(C(C)(C)C)c1O (stereo not drawn) [11d]
> 70 µM: [1] | [2] | [3]; [6] | [4]

CC(C)(C)c1cc(C(c2ccc(NC(=O)Nc3ccc(Cl)cc3)cc2NC(=O)Nc2ccc(Cl)cc2)P(=O)(Oc2ccccc2)Oc2ccccc2)cc(C(C)(C)C)c1O (stereo not drawn) [16d]
> 70 µM: [1] | [2] | [3]; [6] | [4]

CC(C)OP(=O)(OC(C)C)C(c1cc(C(C)(C)C)c(O)c(C(C)(C)C)c1)c1ccc(NC(=O)Nc2ccc([N+](=O)[O-])cc2)nc1NC(=O)Nc1ccc([N+](=O)[O-])cc1 (stereo not drawn) [12c]
> 70 µM: [1] | [2] | [3]; [6] | [4]

COP(=O)(OC)C(c1cc(C(C)(C)C)c(O)c(C(C)(C)C)c1)c1ccc(NC(=O)Nc2ccccc2)cc1NC(=O)Nc1ccccc1 (stereo not drawn) [6a]
> 70 µM: [1] | [2] | [3]; [6] | [4]

COP(=O)(OC)C(c1cc(C(C)(C)C)c(O)c(C(C)(C)C)c1)c1ccc(NC(=O)Nc2cccc(C)c2)nc1NC(=O)Nc1cccc(C)c1 (stereo not drawn) [8a]
> 70 µM: [1] | [2] | [3]; [6] | [4]

CC(C)OP(=O)(OC(C)C)C(c1cc(C(C)(C)C)c(O)c(C(C)(C)C)c1)c1ccc(NC(=O)Nc2ccccc2)nc1NC(=O)Nc1ccccc1 (stereo not drawn) [5c]
> 70 µM: [1] | [2] | [3]; [5] | [4]

Cc1cccc(NC(=O)Nc2ccc(C(c3cc(C(C)(C)C)c(O)c(C(C)(C)C)c3)P(=O)(OC(C)C)OC(C)C)c(NC(=O)Nc3cccc(C)c3)n2)c1 (stereo not drawn) [8c]
> 70 µM: [1] | [2] | [3]; [5] | [4]

CC(C)(C)c1cc(C(c2ccc(NC(=S)Nc3ccccc3)cc2NC(=S)Nc2ccccc2)P(=O)(Oc2ccccc2)Oc2ccccc2)cc(C(C)(C)C)c1O (stereo not drawn) [19d]
> 70 µM: [1] | [2] | [3]; [6] | [4]

COP(=O)(OC)C(c1cc(C(C)(C)C)c(O)c(C(C)(C)C)c1)c1ccc(NC(=O)Nc2ccccc2)nc1NC(=O)Nc1ccccc1 (stereo not drawn) [5a]
> 70 µM: [1] | [2] | [3]; [6] | [4]

CCOP(=O)(OCC)C(c1cc(C(C)(C)C)c(O)c(C(C)(C)C)c1)c1ccc(NC(=S)Nc2ccccc2)cc1NC(=S)Nc1ccccc1 (stereo not drawn) [19b]
> 70 µM: [1] | [2] | [3]; [6] | [4]

Cc1cccc(NC(=O)Nc2ccc(C(c3cc(C(C)(C)C)c(O)c(C(C)(C)C)c3)P(=O)(Oc3ccccc3)Oc3ccccc3)c(NC(=O)Nc3cccc(C)c3)c2)c1 (stereo not drawn) [13d]
> 70 µM: [1] | [2] | [3]; [6] | [4]

COP(=O)(OC)C(c1cc(C(C)(C)C)c(O)c(C(C)(C)C)c1)c1ccc(NC(=S)Nc2ccccc2)nc1N (stereo not drawn) [18a]
> 70 µM: [1] | [2] | [3]; [6] | [4]

COP(=O)(OC)C(c1cc(C(C)(C)C)c(O)c(C(C)(C)C)c1)c1ccc(NC(=O)Nc2ccc(C)cc2)nc1NC(=O)Nc1ccc(C)cc1 (stereo not drawn) [9a]
> 70 µM: [1] | [2] | [3]; [6] | [4]

COP(=O)(OC)C(c1cc(C(C)(C)C)c(O)c(C(C)(C)C)c1)c1ccc(NC(=O)Nc2ccc(Cl)cc2)cc1NC(=O)Nc1ccc(Cl)cc1 (stereo not drawn) [16a]
> 70 µM: [1] | [2] | [3]; [6] | [4]

Cc1cccc(NC(=O)Nc2ccc(C(c3cc(C(C)(C)C)c(O)c(C(C)(C)C)c3)P(=O)(Oc3ccccc3)Oc3ccccc3)c(NC(=O)Nc3cccc(C)c3)n2)c1 (stereo not drawn) [8d]
> 70 µM: [1] | [2] | [3]; [6] | [4]

CC(C)OP(=O)(OC(C)C)C(c1cc(C(C)(C)C)c(O)c(C(C)(C)C)c1)c1ccc(NC(=O)Nc2ccc(Cl)cc2)nc1NC(=O)Nc1ccc(Cl)cc1 (stereo not drawn) [11c]
> 70 µM: [1] | [2] | [3]; [5] | [4]

CC(C)(C)c1cc(C(c2ccc(NC(=O)Nc3ccc([N+](=O)[O-])cc3)nc2NC(=O)Nc2ccc([N+](=O)[O-])cc2)P(=O)(Oc2ccccc2)Oc2ccccc2)cc(C(C)(C)C)c1O (stereo not drawn) [12d]
> 70 µM: [1] | [2] | [3]; [6] | [4]

COc1ccc(NC(=O)Nc2ccc(C(c3cc(C(C)(C)C)c(O)c(C(C)(C)C)c3)P(=O)(Oc3ccccc3)Oc3ccccc3)c(NC(=O)Nc3ccc(OC)cc3)c2)cc1 (stereo not drawn) [15d]
> 70 µM: [1] | [2] | [3]; [6] | [4]
